We go through 15 compounds from patent US20240287042A1, “NOVEL COMPOUND HAVING INHIBITORY ACTIVITY AGAINST PENDRIN, AND PHARMACEUTICAL USES THEREOF” (UIF (University Industry Foundation), Yonsei University, priority 2021, published 2024).

This experiment addresses T1, human wild-type (WT)-pendrin (Homo sapiens, UniProt O43511).
T1 construct: expressed in transfected cells
T1 sequence (O43511 1-780): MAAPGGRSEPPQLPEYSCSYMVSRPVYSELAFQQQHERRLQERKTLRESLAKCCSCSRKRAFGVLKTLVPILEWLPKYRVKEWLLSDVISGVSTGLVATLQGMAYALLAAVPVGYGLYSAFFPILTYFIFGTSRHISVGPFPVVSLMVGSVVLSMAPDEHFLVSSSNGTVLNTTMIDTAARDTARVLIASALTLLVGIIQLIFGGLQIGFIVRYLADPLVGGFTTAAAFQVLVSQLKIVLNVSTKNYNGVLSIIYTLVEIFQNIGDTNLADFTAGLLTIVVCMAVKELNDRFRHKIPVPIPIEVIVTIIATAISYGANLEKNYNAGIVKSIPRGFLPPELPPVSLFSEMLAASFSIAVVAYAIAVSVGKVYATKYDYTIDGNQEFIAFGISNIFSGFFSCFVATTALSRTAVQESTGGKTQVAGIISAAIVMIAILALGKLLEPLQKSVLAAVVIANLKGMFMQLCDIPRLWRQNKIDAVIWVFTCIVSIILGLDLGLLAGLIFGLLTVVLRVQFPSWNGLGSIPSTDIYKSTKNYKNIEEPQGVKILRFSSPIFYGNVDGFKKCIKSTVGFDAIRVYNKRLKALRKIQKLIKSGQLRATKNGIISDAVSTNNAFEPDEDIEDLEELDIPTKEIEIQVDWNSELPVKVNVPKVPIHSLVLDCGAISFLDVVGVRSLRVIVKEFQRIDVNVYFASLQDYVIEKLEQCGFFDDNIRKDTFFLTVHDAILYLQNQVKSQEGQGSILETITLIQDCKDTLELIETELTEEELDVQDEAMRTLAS
The experiment in a line: Pendrin Cl−/I− exchange inhibitory activity, YFP fluorescence in CHO-K1 cells. The experiment is classed as cell-based. The note with it: CHO-K1; for inhibition at 1 µM: compound concentration 1 μM; for inhibition at 3 µM: compound concentration 3 μM; for inhibition at 10 µM: compound concentration 10 μM; for inhibition at 30 µM: compound concentration 30 μM; for inhibition at 100 µM: compound concentration 100 μM. As to the method:
Chinese hamster ovary (CHO)-K1 cells were cultured in DMEM medium containing 10% fetal bovine serum (FBS), 100 units/ml of penicillin and 100 μg/ml streptomycin. CHO-K1 cells were stably transfected with pcDNA3.1 encoding the halide sensor YFP-H148Q/I152L/F46L and human wild-type (WT)-pendrin.
(§1) CHO-K1 cells expressing human WT pendrin and YFP-F46L/H148Q/I152L were plated in 96-well microplates at a density of 2×10^4 cells per well, and cultured for 48 hours. Each well of the cell cultured 96-well plate was washed 2 times with 200 μL of PBS, and filled with 50 μL of HEPES buffered solution (140 mM NaCl, 5 mM KCl, 1 mM MgCl2, 1 mM CaCl2), 10 mM glucose and 10 mM HEPES (pH 7.4)). Test compounds (1 μL) were added to a final concentration of 1, 3, 10, 30 and 100 μM. After culturing at 37° C. for 10 minutes, the 96-well plate was located on the FLUOstar Omega Microplate Reader (BMG Labtech, Ortenberg, Germany) for a fluorescence assay. Fluorescence was recorded continuously (400 ms per point) for 1 second (baseline), whereby each well was assayed individually for pendrin-mediated I-influx. Then 50 μL of Na-substituted HEPES buffered solution (replacing NaCl with NaI) was added using a liquid injector at 1 second, and YFP fluorescence was recorded for 5 seconds. The initial iodide influx rate was determined from the initial slope of fluorescence by nonlinear regression, after the injection of iodide.
as §1, with “Chinese hamster ovary (CHO)-K1 cells were cultured in DMEM medium containing 10% fetal bovine serum (FBS), 100 units/ml of penicillin and 100 μg/ml streptomycin. CHO-K1 cells were stably transfected with pcDNA3.1 encoding the halide sensor YFP-H148Q/I152L/F46L and human wild-type (WT)-pendrin. 3-2: Assay of Cl^−/I^− exchange activity CHO-K1” for “CHO-K1”, “50” for “1, 3, 10, 30 and 100”, “Then,” for “Then”, “NaI-substituted” for “Na-substituted”

In general, inhibition refers to the share of the control response that was lost under treatment. Higher therefore signals a strong effect. Regarding `Cc1cc(C)c2[nH]c(C(=O)O)c(CC(=O)N3CCN(c4ccc(C(C)(C)C)cc4)CC3)c2c1` [YPI-A4945], the inhibition at 1 µM is less than 20%, the inhibition at 3 µM was less than 20%, the inhibition at 10 µM is less than 20% and the inhibition at 30 µM turned out to be 38.5%. Also, the inhibition at 100 µM stood at 38.6%.

In turn, `Cc1cccc(C)c1N1CCN(C(=O)Cc2c(C(=O)O)[nH]c3ccc(F)cc23)CC1` [YPI-A4964, 3-(2-(4-(2,6-Dimethylphenyl)piperazin-1-yl)-2-oxoethyl)-5-fluoro-1H-indole-2-carboxylic acid] showed an inhibition at 1 µM of less than 20%, an inhibition at 3 µM of less than 20%, an inhibition at 10 µM of 51.4% and an inhibition at 30 µM of 88.9%.

In the case of `Cc1ccc(N2CCN(C(=O)Cc3c(C(=O)O)[nH]c4ccc(Cl)cc34)CC2)c(C)c1` [YPI-A4801, 5-Chloro-3-(2-(4-(2,4-dimethylphenyl)piperazin-1-yl)-2-oxoethyl)-1H-indole-2-carboxylic acid], at 1 µM the inhibition was 40.9%, testing at 3 µM gave an inhibition of 72.8%, 10 µM produced 95.4% inhibition and the inhibition at 30 µM was determined as 96.7%. For the same compound, the inhibition at 100 µM was 97.4%.

`COc1ccc(Cl)c(N2CCN(C(=O)Cc3c(C(=O)O)[nH]c4ccc(Cl)cc34)CC2)c1` [YPI-A4886, 5-Chloro-3-(2-(4-(2-chloro-5-methoxyphenyl)piperazin-1-yl)-2-oxoethyl)-1H-indole-2-carboxylic acid] had an inhibition at 1 µM of less than 20%, an inhibition at 3 µM of less than 20%, an inhibition at 10 µM of 33.7% and an inhibition at 30 µM of 66.2%. Also, the inhibition at 100 µM is 79.9%.

`O=C(O)c1[nH]c2ccc(Cl)cc2c1CC(=O)N1CCN(c2ccc(C(F)(F)F)cc2)CC1` [YPI-A4779, 5-Chloro-3-(2-oxo-2-(4-(4-(trifluoromethyl)phenyl)piperazin-1-yl)ethyl)-1H-indole-2-carboxylic acid] displayed an inhibition at 1 µM of less than 20%, an inhibition at 3 µM of less than 20%, an inhibition at 10 µM of 66.7% and an inhibition at 30 µM of 92.7%. The compound further returned an inhibition at 100 µM of 95.3%.

Regarding `Cc1cc(C)c2[nH]c(C(=O)O)c(CC(=O)N3CCN(c4c(C)cccc4C)CC3)c2c1` [YPI-A4947, 3-(2-(4-(2,6-dimethylphenyl)piperazin-1-yl)-2-oxoethyl)-5,7-dimethyl-1H-indole-2-carboxylic acid], the inhibition at 1 µM was less than 20%, the inhibition at 3 µM was less than 20%, 10 µM produced 40.8% inhibition and at 30 µM the inhibition was 41.3%. The same compound came in with an inhibition at 100 µM of 41.9%.

`O=C(O)c1[nH]c2ccc(Cl)cc2c1CC(=O)N1CCN(c2ccc(Cl)cc2Cl)CC1` [YPI-A4887, 5-Chloro-3-(2-(4-(2,4-dichlorophenyl)piperazin-1-yl)-2-oxoethyl)-1H-indole-2-carboxylic acid]: the inhibition at 1 µM is less than 20%, the inhibition at 3 µM stood at 50.8%, the inhibition at 10 µM came out at 89.3% and the inhibition at 30 µM was 89.5%. This compound also showed an inhibition at 100 µM of 89.9%.

In turn, `Cc1ccccc1N1CCN(C(=O)Cc2c(C(=O)O)[nH]c3ccc(Cl)cc23)CC1` [YPI-A4847, 5-Chloro-3-(2-oxo-2-(4-(o-tolyl)piperazin-1-yl)ethyl)-1H-indole-2-carboxylic acid] had an inhibition at 1 µM of less than 20%, an inhibition at 3 µM of less than 20%, an inhibition at 10 µM of 60.6% and an inhibition at 30 µM of 91.5%. For the same compound, at 100 µM the inhibition was 92.4%.

`Cc1cc(C)c2[nH]c(C(=O)O)c(CC(=O)N3CCN(c4c(C)cccc4Cl)CC3)c2c1` [YPI-A4949, 3-(2-(4-(2-Chloro-6-methylphenyl)piperazin-1-yl)-2-oxoethyl)-5,7-dimethyl-1H-indole-2-carboxylic acid]: the inhibition at 1 µM was less than 20%, the inhibition at 3 µM was 39.5%, 10 µM produced 78.9% inhibition and the inhibition at 30 µM stood at 79.3%. In addition, the inhibition at 100 µM came to 79.6%.

`Cc1cccc(N2CCN(C(=O)Cc3c(C(=O)O)[nH]c4ccc(Cl)cc34)CC2)c1C` [YPI-A4799, 5-Chloro-3-(2-(4-(2,3-dimethylphenyl)piperazin-1-yl)-2-oxoethyl)-1H-indole-2-carboxylic acid] displayed an inhibition at 1 µM of 27.9%, an inhibition at 3 µM of 65.3%, an inhibition at 10 µM of 94.2% and an inhibition at 30 µM of 95.5%. 100 µM produced 97.1% inhibition.

Consider `Cc1ccc2[nH]c(C(=O)O)c(CC(=O)N3CCN(c4ccc(C(C)(C)C)cc4)CC3)c2c1` [YPI-A4944, 3-(2-(4-(4-(Tert-butyl)phenyl)piperazin-1-yl)-2-oxoethyl)-5-methyl-1H-indole-2-carboxylic acid], for which the inhibition at 1 µM is less than 20%, the inhibition at 3 µM is less than 20%, the inhibition at 10 µM worked out at 45.4% and 30 µM produced 76.2% inhibition. This compound also had an inhibition at 100 µM of 77.3%.

The compound `Cc1cccc(N2CCN(C(=O)Cc3c(C(=O)O)[nH]c4ccc(Cl)cc34)CC2)c1` [YPI-A4848, 5-Chloro-3-(2-oxo-2-(4-(m-tolyl)piperazin-1-yl)ethyl)-1H-indole-2-carboxylic acid] yielded an inhibition at 1 µM of less than 20%, an inhibition at 3 µM of less than 20%, an inhibition at 10 µM of less than 20% and an inhibition at 30 µM of 58.9%. This compound showed an inhibition at 100 µM of 90.5%.

For `CC(C)(C)OC(=O)N1CCN(C(=O)Cc2c(C(=O)O)[nH]c3ccc(Cl)cc23)CC1` [YPI-A4879, 3-(2-(4-(tert-butoxycarbonyl)piperazin-1-yl)-2-oxoethyl)-5-chloro-1H-indole-2-carboxylic acid], the inhibition at 1 µM was less than 20%, the inhibition at 3 µM was less than 20%, the inhibition at 10 µM was less than 20% and the inhibition at 30 µM was less than 20%. In addition, the inhibition at 100 µM was less than 20%.

Regarding `O=C(O)c1[nH]c2ccc(Cl)cc2c1CC(=O)N1CCN(c2ccc(F)cc2Cl)CC1` [YPI-A4885, 5-Chloro-3-(2-(4-(2-chloro-4-fluorophenyl)piperazin-1-yl)-2-oxoethyl)-1H-indole-2-carboxylic acid], the inhibition at 1 µM was less than 20%, the inhibition at 3 µM was less than 20%, the inhibition at 10 µM stood at 69.1% and the inhibition at 30 µM is 83.7%. The compound further registered an inhibition at 100 µM of 84.2%.

Regarding `CC1(C)CN(c2ccc(Cl)cc2)CCN1C(=O)Cc1c(C(=O)O)[nH]c2ccc(Cl)cc12` [YPI-A4884, 5-Chloro-3-(2-(4-(4-chlorophenyl)-2,2-dimethylpiperazin-1-yl)-2-oxoethyl)-1H-indole-2-carboxylic acid], the inhibition at 1 µM was less than 20%, the inhibition at 3 µM is less than 20%, the inhibition at 10 µM was less than 20% and the inhibition at 30 µM is less than 20%.
